Reference: patent US6451814B1, “Heterocyclic β-3 adrenergic receptor agonists” (Wyeth, priority 2000, dated 2002)
Where “and” joins values, the source holds several entries; their conditions need not be identical. Identical values can stand only once.

Target: T1, human β3-adrenergic receptor (Homo sapiens, UniProt P13945)
T1 construct: Full length β3 AR clones (402 amino acids) containing the last 6 amino acids of hβ3—AR are prepared; expressed in transfected cells; host or cells: CHO cells
Assay: cAMP response (SPA kit) in CHO cells transfected with human β3 adrenergic receptor
Assay type: cell-based
Settings: for EC50: CHO cells expressing human β3-AR, 10^-9 M to 10^-5 M, 30 min at 37° C., cAMP by SPA, read-out: EC50(β3); for IA(β3): maximal response of compound compared to maximal response of isoproterenol at 10^-5 M, CHO cells, human β3-AR

T1 sequence (P13945 whole entry): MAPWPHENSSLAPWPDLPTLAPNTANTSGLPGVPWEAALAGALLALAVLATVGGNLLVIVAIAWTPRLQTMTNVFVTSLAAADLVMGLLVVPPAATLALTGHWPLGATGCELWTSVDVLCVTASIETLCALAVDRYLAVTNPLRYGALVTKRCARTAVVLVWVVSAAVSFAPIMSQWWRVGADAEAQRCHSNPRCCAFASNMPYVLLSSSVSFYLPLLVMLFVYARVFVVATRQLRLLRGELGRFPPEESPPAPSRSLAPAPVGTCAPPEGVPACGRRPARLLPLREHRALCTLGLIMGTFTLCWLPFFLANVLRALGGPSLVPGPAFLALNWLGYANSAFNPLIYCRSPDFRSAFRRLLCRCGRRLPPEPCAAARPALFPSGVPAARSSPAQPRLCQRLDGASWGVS

Molecule	EC50	IA(β3)
1H-Indole-2-carboxylic Acid (4-{2-[(2S)-2-hydroxy-3-(4-hydroxy-phenoxy)-propylamino]-ethyl}-phenyl)-amide [Example 91]	51 nM	1
4-(4-{2-[(2S)-2-Hydroxy-3-(4-hydroxy-phenoxy)-propylamino]-ethyl}-phenylamino)-piperidine-1-carboxylic Acid 4-fluoro-benzylamide [Example 53]		1.17 and 1.5
4-[(2S)-2-Hydroxy-3-(2-{4-[-(1-methyl-1H-imidazole-4-sulfonyl)-piperidin-4-ylamino]-phenyl}-ethylamino)-propoxy]-phenol [Example 113]	130 nM	1
O=C(NCc1ccc(F)cc1)N1CCC(Nc2ccc(CCNC[C@H](O)COc3ccc(O)cc3)cc2)CC1 [Example 1, 4-(4-{2-[(2S)-2-Hydroxy-3-(4-hydroxy-phenoxy)-propylamino]-ethyl}-phenylamino)-piperidine-1-carboxylic Acid 4-fluoro-benzylamide]	32 nM and 36 nM and 50 nM	0.95 and 0.71 and 0.91
CCCCCCCCNC(=O)N1CCC(Nc2ccc(CCNC[C@H](O)COc3ccc(N)nc3)cc2)CC1 [Example 5, 4-(4-{2-[(2S)-3-(6-Amino-pyridin-3-yloxy)-2-hydroxy-propylamino]-ethyl}-phenylamino)-piperidine-1-carboxylic Acid Octylamide]		0.68
COc1cccc(CCNC(=O)N2CCC(Nc3ccc(CCNC[C@H](O)COc4ccc(O)cc4)cc3)CC2)c1 [Example 6, 4-(4-{2-[(2S)-2-Hydroxy-3-(4-hydroxy-phenoxy)-propylamino]-ethyl}-phenylamino)-piperidine-1-carboxylic Acid [2-(3-methoxy-phenyl)-ethyl]-amide]	106 nM	1.21
CCCCCCCCNC(=O)N1CCC(N(C(C)=O)c2ccc(CCNC[C@H](O)COc3ccc(O)cc3)cc2)CC1 [Example 8, 4-[Acetyl-(4-{2-[(2S)-2-hydroxy-3-(4-hydroxy-phenoxy)-propylamino]-ethyl}-phenyl)-amino]-piperidine-1-carboxylic Acid Octylamide]	64 nM	0.82
CNC(=O)N1CCC(Nc2ccc(CCNC[C@H](O)COc3ccc(O)cc3)cc2)CC1 [Example 9, 4-(4-{2-[(2S)-2-Hydroxy-3-(4-hydroxy-phenoxy)-propylamino]-ethyl}-phenylamino)-piperidine-1-carboxylic Acid Methylamide]		0.85
CCNC(=O)N1CCC(Nc2ccc(CCNC[C@H](O)COc3ccc(O)cc3)cc2)CC1 [Example 10, 4-(4-{2-[(2S)-2-Hydroxy-3-(4-hydroxy-phenoxy)-propylamino]-ethyl}-phenylamino)-piperidine-1-carboxylic Acid Ethylamide]	43 nM	0.85
CC(C)NC(=O)N1CCC(Nc2ccc(CCNC[C@H](O)COc3ccc(O)cc3)cc2)CC1 [Example 11]	90 nM	1.05
O=C(NCCCC1CCCC1)N1CCC(Nc2ccc(CCNC[C@H](O)COc3ccc(O)cc3)cc2)CC1 [Example 12, 1-4-(4-{2-[(2S)-2-Hydroxy-3-(4-hydroxy-phenoxy)-propylamino]-ethyl}-phenylamino)-piperidine-1-carboxylic Acid (3-cyclopentyl-propyl)-amide]	50 nM	
O=C(NCc1ccc(Cl)cc1Cl)N1CCC(Nc2ccc(CCNC[C@H](O)COc3ccc(O)cc3)cc2)CC1 [Example 20, 4-(4-{2-[(2S)-2-Hydroxy-3-(4-hydroxy-phenoxy)-propylamino]-ethyl}-phenylamino)-piperidine-1-carboxylic Acid 2,4-dichloro-benzylamide]		0.91
O=C(NCc1ccc(Cl)c(Cl)c1)N1CCC(Nc2ccc(CCNC[C@H](O)COc3ccc(O)cc3)cc2)CC1 [Example 21, 4-(4-{2-[(2S)-2-Hydroxy-3-(4-hydroxy-phenoxy)-propylamino]-ethyl}-phenylamino)-piperidine-1-carboxylic Acid 3,4-dichloro-benzylamide]	30 nM	1
CCCCCCCCNC(=O)N1CCC(Nc2ccc(CCNC[C@H](O)c3cccc(Cl)c3)cc2)CC1 [Example 36, 4-(4-{2-[(2R)-2-(3-Chloro-phenyl)-2-hydroxy-ethylamino]-ethyl}-phenylamino)-piperidine-1-carboxylic Acid Octylamide]		0.77
CCCCCCNC(=O)N1CCC(S(=O)(=O)c2ccc(CCNC[C@H](O)COc3ccc(O)cc3)cc2)CC1 [Example 44, 4-(4-{2-[(2S)-2-Hydroxy-3-(4-hydroxy-phenoxy)-propylamino]-ethyl}-benzenesulfonyl)-piperidine-1-carboxylic Acid Hexylamide]	36 nM	0.99
O=C(NCc1ccc(F)cc1)N1CCC(S(=O)(=O)c2ccc(CCNC[C@H](O)COc3ccc(O)cc3)cc2)CC1 [Example 45, 4-(4-{2-[(2S)-2-Hydroxy-3-(4-hydroxy-phenoxy)-propylamino]-ethyl}-benzenesulfonyl)-piperidine-1-carboxylic Acid 4-fluoro-benzylamide]	64 nM	1.07
O=C(NCC1(c2ccccc2)CCCC1)N1CCC(S(=O)(=O)c2ccc(CCNC[C@H](O)COc3ccc(O)cc3)cc2)CC1 [Example 46, 4-(4-{2-[(2S)-2-Hydroxy-3-(4-hydroxy-phenoxy)-propylamino]-ethyl}-benzenesulfonyl)-piperidine-1-carboxylic Acid (1-phenyl-cyclopentylmethyl)-amide]	162 nM	0.82
CS(=O)(=O)Nc1cc([C@@H](O)CNCCc2ccc(NC3CCN(C(=O)N4CCC(C(=O)O)CC4)CC3)cc2)ccc1O [Example 52, 1-[4-(4-{2-[(2R)-2-Hydroxy-2-(4-hydroxy-3-methanesulfonylamino-phenyl)-ethylamino]-ethyl}-phenylamino)-piperidine-1-carbonyl]-piperidine-4-carboxylic Acid]	69 nM	0.82
CCCCCCCCNC(=O)N1CCC(Oc2ccc(CCNC[C@H](O)COc3ccc(O)cc3)cc2)CC1 [Example 54, 4-[4-(2-{[(2S)-2-Hydroxy-3-(4-hydroxyphenoxy)propyl]amino}ethyl)phenoxy]-N-octyl-1-piperidinecarboxamide]	1010 nM and 398 nM and 400 nM	0.7 and 0.78 and 0.51
O=C(NCc1ccc(F)cc1)N1CCC(Oc2ccc(CCNC[C@H](O)COc3ccc(O)cc3)cc2)CC1 [Example 56, 4-(4-{2-[(2S)2-Hydroxy-3-(4-hydroxy-phenoxy)-propylamino]-ethyl}-phenoxy)-piperidine-1-carboxylic Acid 4-fluoro-benzylamide]	52 nM	0.84
O=C(O)COc1ccc(NC(=O)N2CCC(Nc3ccc(CCNC[C@H](O)COc4ccc(O)cc4)cc3)CC2)cc1 [Example 58, (4-{[4-(4-{2-[(2S)-2-Hydroxy-3-(4-hydroxy-phenoxy)-propylamino]-ethyl}-phenylamino)-piperidine-1-carbonyl]-amino}-phenoxy)-acetic Acid]	320 nM	1.61
O=C(O)C1CCN(C(=O)N2CCC(Nc3ccc(CCNC[C@H](O)COc4ccc(O)cc4)cc3)CC2)CC1 [Example 62, 1-[4-(4-{2-[(2S)-2-Hydroxy-3-(4-hydroxy-phenoxy)-propylamino]-ethyl}-phenylamino)-piperidine-1-carbonyl]-piperidine-4-carboxylic acid]	134 nM	1.05
CCCCCCCCNC(=O)N1CCC(Nc2ccc(CCNC[C@H](O)COc3ccc(O)c(NS(C)(=O)=O)c3)cc2)CC1 [Example 66, 4-(4-{2-[(2S)-2-Hydroxy-3-(4-hydroxy-3-methanesulfonylamino-phenoxy)-propylamino]-ethyl}-phenylamino)-piperidine-1-carboxylic Acidoctylamide]	200 nM	0.99
CCCCCCCCNC(=O)N1CCC(Nc2ccc(OCCNC[C@H](O)COc3ccc(O)cc3)cc2)CC1 [Example 73, 4-(4-{2-[(2S)-2-Hydroxy-3-(4-hydroxy-phenoxy)-propylamino]-ethoxy}-phenylamino)-piperidine-1-carboxylic Acid Octylamide]	70 nM	0.8
COC(=O)[C@@H]1CCCN1C(=O)N1CCC(Nc2ccc(CCNC[C@H](O)c3ccc(O)c(NS(C)(=O)=O)c3)cc2)CC1 [Example 77, 1-[[4-[[4-[2-[[(2R)-2-Hydroxy-2-[4-hydroxy[(methylsulfonyl)amino]phenyl]ethyl]amino]ethyl]phenyl]amino]-1-piperidinyl]carbonyl]-L-proline, Methyl Ester]	28 nM	0.99
CCOC(=O)C1CCCN(C(=O)N2CCC(Nc3ccc(CCNC[C@H](O)c4ccc(O)c(NS(C)(=O)=O)c4)cc3)CC2)C1 (stereo partly drawn) [Example 78, 1-[[4-[[4-[2-[[(2R)-2-Hydroxy-2-[4-hydroxy-3-[(methylsulfonyl)amino]phenyl]ethyl]amino]ethyl]phenyl]amino]-1-piperidinyl]carbonyl]-3-piperidine Carboxylic Acid, Ethyl Ester]		1
COc1cccc(CNC(=O)N2CCC(Nc3ccc(CCNC[C@H](O)COc4ccc(O)cc4)cc3)CC2)c1 [Example 79, 4-(4-{2-[(2S)-2-Hydroxy-3-(4-hydroxy-phenoxy)-propylamino]-ethyl}-phenylamino)-piperidine-1-carboxylic acid 3-methoxy-benzylamide]	41 nM	0.8
